Values joined by “and” are separate entries in the source; they are usually repeats but may differ in a detail not shown here. Equal entries are not always repeated.
Columns and labels:
[1] = tested on: β-glucosidase from almonds; test: Indigogenic reaction with β-glucosidase from almonds; assay type: biochemical
[2] = molecular target: T1, β-glucosidase from Agrobacterium plus rat liver homogenate (Agrobacterium sp., UniProt P12614); test: Reaction with β-glucosidase from Agrobacterium in rat liver homogenate; assay type: biochemical; details: 33 100 μM, enzyme 200 nM, 2% DMF, 37° C., 4 h; ϵ = 2.6 × 10^4 M^−1 cm^−1
T1 construct: purchased Megazyme
T1 sequence (P12614 1-459): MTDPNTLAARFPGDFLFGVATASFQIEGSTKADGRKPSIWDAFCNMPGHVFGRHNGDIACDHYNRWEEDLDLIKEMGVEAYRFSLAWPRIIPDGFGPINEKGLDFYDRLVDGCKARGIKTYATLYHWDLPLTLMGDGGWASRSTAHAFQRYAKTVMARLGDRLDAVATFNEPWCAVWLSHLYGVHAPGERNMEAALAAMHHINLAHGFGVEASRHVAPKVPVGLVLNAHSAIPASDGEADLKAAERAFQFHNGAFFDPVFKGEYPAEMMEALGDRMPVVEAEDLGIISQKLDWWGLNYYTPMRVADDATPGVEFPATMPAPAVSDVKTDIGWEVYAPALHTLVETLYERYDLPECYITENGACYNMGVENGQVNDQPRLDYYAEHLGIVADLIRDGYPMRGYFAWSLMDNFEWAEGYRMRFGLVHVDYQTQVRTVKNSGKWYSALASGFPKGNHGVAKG
Protocol: Finally, indigoid-dye formation was carried out in rat liver homogenate (Table 1, rightmost column). Good yields were obtained in the case of 42 (65%, entry 4) and 27 (50%, entry 13). […] However, when β-glucosidase from Agrobacterium (200 nM) was present in rat liver homogenate, the indigoid dye was obtained in 81% yield (entry 15).
Reaction of 33 with β-glucosidase from Agrobacterium in rat liver homogenate. A DMF solution of 33 (2 μL, 5 mM) and β-glucosidase from Agrobacterium in 10 mM phosphate buffer [2 μL, 10 μM, pH 7.0, containing 50 mM NaCl and 0.6 M (NH4)2SO4] were mixed with rat liver homogenate (96 μL). The reaction mixture was incubated at 37° C. for 4 h and then centrifuged for 3 min. Any precipitate was separated from the supernatant and then suspended in DMF (200 μL). The suspension was centrifuged for 3 min. The supernatant was analyzed by absorption spectroscopy.

[3] = molecular target: T2, β-glucosidase from Agrobacterium (Agrobacterium sp., UniProt P12614); test: Indigogenic reaction with β-glucosidase from Agrobacterium; assay type: biochemical; details: for Yield of indigoid dye: 33 100 μM, enzyme 200 nM; for Yield (%) β-glucosidase from Agrobacterium: as E4 but ϵ = 2.6 × 10^4 M^−1 cm^−1 measured for 43
T2 construct: purchased Megazyme
T2 sequence (P12614 1-459): T1 sequence (P12614 1-459)
Protocol: Next, the β-glucosidase from Agrobacterium sp. was investigated as the trigger enzyme for indigoid dye formation. […] The reaction was carried out using the enzyme (200 nM) and indoxyl-glucoside 33 (100 μM) in phosphate buffer (pH 4-9, containing 2% DMF) at 37° C. […] Note that with 200 nM enzyme and 100 μM substrate, complete reaction requires 500 turnovers of each enzyme.
Reactions with β-glucosidase from Agrobacterium. An indoxyl compound in DMF (2 μL, 5 mM) and β-glucosidase from Agrobacterium in 10 mM phosphate buffer [2 μL, 10 μM, pH 7.0, containing 50 mM NaCl and 0.6 M (NH4)2SO4] were mixed with 50 mM phosphate buffer (96 μL, pH 7.0). The reaction mixture was incubated at 37° C. for 2 h and then centrifuged for 3 min. Any precipitate was separated from the supernatant and dissolved in DMF (200 μL). The resulting solution was analyzed by absorption spectroscopy. The experiment was repeated three times.

[4] = tested on: rat liver homogenate; test: Indigoid-dye formation in rat liver homogenate; assay type: biochemical; details: as E7 but ϵ = 2.6 × 10^4 M^−1 cm^−1 measured for 43
Protocol: Finally, indigoid-dye formation was carried out in rat liver homogenate (Table 1, rightmost column).
Reactions in rat liver homogenate. An indoxyl compound in DMF (5 μL, 20 mM) was mixed with rat liver homogenate (95 μL). The reaction mixture was incubated at 37° C. for 24 h. After allowing to cool to room temperature, the reaction mixture was diluted with DMF (900 μL). The mixture was heated at 70° C. for 2 min and then centrifuged for 2 min. The supernatant was separated from any precipitate. This extraction procedure was repeated two or three times with DMF (100-500 μL). The combined supernatant (1500-1800 μL) was analyzed by absorption spectroscopy.

[5] = Solubility in aqueous buffer; assay type: physicochemical; details: 100 mM phosphate buffer (pH 7.4, containing 100 mM NaCl), room temperature
Excerpt: Water solubility of the indoxyl glucoside is important for biological applications. […] Therefore, this compound is not suitable for bioconjugation. The synthesis of 34 relies on successive substitution of the dichloroanilinotriazine unit (derived from N,N-bis(2-methoxyethyl)aniline^31 and cyanuric chloride) with indoxyl-glucoside-PEG-OH and BCN-PEG-NH2 building blocks.
To improve the water solubility of the indoxyl species, a sulfobetaine unit^32,33 was incorporated as a water-solubilizing group. Sulfobetaines are stable zwitterions over a wide range of pH. Synthesis of an indoxyl bearing a sulfobetaine unit is illustrated in Scheme 6. Boc-piperazine (35) was treated with 1,3-propane sultone to afford 36 in 63% yield. Quaternization of the tertiary nitrogen atom in 36 with 3-bromopropanol gave Boc-protected sulfobetaine 37 in 69% yield. The Boc group was cleaved with trifluoroacetic acid (TFA) to afford piperazine-TFA salt 38 in 97% yield. The N-acetyl group of 32 was selectively deprotected with NaHCO3/MeOH in 84% yield. The product 39, piperazine-TFA salt 38, and BCN-amine 14 were assembled at a triazine ring via one-flask, successive substitution of cyanuric chloride to afford 40 in 51% yield. Cleavage of the acetyl groups of sulfobetaine 40 provided 41 in 98% yield.

[6] = tested on: tritosomes; test: Indigoid dye formation with tritosomes; assay type: biochemical
Protocol: The results from the glucosidase survey prompted several further experiments. First, a parallel set of studies was carried out with inclusion of several oxidants commonly employed in histochemical studies, given that the indigoid dye forming process requires the presence of an oxidant. […] The activity of the β-glucosidase was affected only slightly in the presence of a non-ionic detergent. To verify that the results observed in Table 1 were reliable, a 5-mg scale reaction of 33 was carried out to isolate indigo 43, which was obtained in 66% yield (Scheme 7). The 66% isolated yield corresponded well with the enzymatic yield of […] (Table 1, entry 15).
General methods. β-Glucosidase from almonds (lyophilized powder, ≥2 units/mg solid) and peroxidase from horseradish were purchased from Sigma-Aldrich. β-Glucosidase from Agrobacterium sp. (recombinant, suspension in 3.2 M (NH4)2SO4) was purchased from Megazyme; the concentration in solution was determined by absorption spectroscopy with E^0.1%=2.20 cm^−1 at 280 nm.^37 Tritosomes were purchased from XenoTech. Rat liver homogenate was purchased from MP Biomedicals.

[7] = tested on: β-glucosidase; test: Treatment of F-9 with β-glucosidase; assay type: biochemical; details: result in words
Protocol: Triazine-based A2BC architectures. Cyanuric chloride (F-8) was treated with 2 equiv of F-7 followed by tyramine to afford F-9 in 56% yield (Scheme 17). […] Treatment of N-(6-hydroxyhexyl)maleimide (F-10) (K. A. Keller, et al., Tetrahedron Lett., 2005, 46, 1181-1184. “A Thermally-Cleavable Linker for Solid-Phase Synthesis”) with cyanuric chloride (F-8) followed by F-9 in the presence of bases gave F-11 in 77% yield. […] While F-9 and F-11 were attractive from a synthetic standpoint given the ability to derivatize the 5-hydroxy group of the indoxyl unit without protection of the four hydroxy groups of the glucosyl unit, the reaction with a β-glucosidase was sine qua non in the molecular design. Accordingly, we moved to the design of a more suitable architecture.

SMILES | Isolated yield of indigo 43 ([1]; 5-mg scale reaction of 33, acetate buffer pH 5.0, 37° C., 22 h) | Yield (%) β-glucosidase from almonds ([1]; as E1 but ϵ = 2.6 × 10^4 M^−1 cm^−1 measured for 43) | Yield (%) β-glucosidase from Agrobacterium plus rat liver homogenate [2] | Yield of indigoid dye ([3]; pH 6-9, 3 h, in words) | Yield of indigoid dye ([3]; phosphate buffer pH 4, 3 h) | Yield of indigoid dye ([3]; phosphate buffer pH 5, 3 h) | Yield (%) β-glucosidase from Agrobacterium [3] | Yield (%) rat liver homogenate [4] | solubility [5] | Yield of indigoid dye with tritosomes [6] | Indigoid dye formation upon treatment with β-glucosidase [7]
OCCOCCOCCOc1c(Br)cc2[nH]cc(O[C@@H]3O[C@H](CO)[C@@H](O)[C@H](O)[C@H]3O)c2c1Br [Compound 33, 4,6-Dibromo-5-[1-hydroxy-3,6,9-trioxanon-9-yl]-1H-indol-3-yl β-D-glucopyranoside] | 66% | 52% and 52^g % | 81% | High to quantitative yields | 6% | 38% | 99% | < 5% |  |  | 
O=C(NCCOCCOCCNc1nc(OCCOCCOCCOc2c(Br)cc3[nH]cc(O[C@@H]4O[C@H](CO)[C@@H](O)[C@H](O)[C@H]4O)c3c2Br)nc(N2CC[N+](CCCO)(CCCS(=O)(=O)[O-])CC2)n1)OC[C@@H]1[C@@H]2CCC#CCC[C@@H]21 [Compound 41] |  |  |  |  |  |  | 106% and 106 ± 4^g % |  | > 400 µM |  | 
OC[C@H]1O[C@@H](Oc2c[nH]c3ccc(Oc4nc(NCCc5ccc(O)cc5)nc(Oc5ccc6[nH]cc(O[C@@H]7O[C@H](CO)[C@@H](O)[C@H](O)[C@H]7O)c6c5)n4)cc23)[C@H](O)[C@@H](O)[C@@H]1O [Compound F-9, 2,4-Bis[3-(β-D-glucopyranosyloxy)-1H-indol-5-yloxy]-6-[2-(4-hydroxyphenyl)ethylamino]-1,3,5-triazine] |  |  |  |  |  |  |  |  |  | ca. 4% | did not form the corresponding indigoid dye

Reference: US12668646B2, “Cross-linking compounds and methods of use thereof” (North Carolina State University, priority 2019, dated 2026)
